# Columns and labels:
# [1] = test system: mouse model of the acute renal failure induced by cisplatin; assay: Weight measurement in cisplatin-induced mice; type: in vivo; settings: Amifostine 200 mg/kg i.p. 30 min after cisplatin 20 mg/Kg day 7
# Method: (§1) Male ICR mice aged 7-8 weeks (each weighing about 30-32 grams) were divided into 6 groups, 10 mice per group, and the six groups correspond to a control group, an induction group, a positive control group and low-medium-high dose brown Flammulina velutipes water extract groups. The entire process was limited to 10 days. […] Both of the induction and the sacrifice were performed in a fasting state.
# (§2) The administration was performed for 10 consecutive days while feeding at around 10 a.m. Normal food was provided during the above period. […] On the day before induction, all […] groups were treated on an empty stomach.
# [2] = test system: mouse model of the acute renal failure induced by cisplatin; assay: Measurement on kidney weight/body weight ratio; type: in vivo; settings: Amifostine 200 mg/kg i.p. 30 min after cisplatin 20 mg/Kg day 7
# Method: as §1, §2
# Kidneys were removed from the mouse body, and adrenal glands and surrounding fat were removed, washed with saline and then weighed immediately. The weights of the both kidneys were obtained and compared with the weight of the mouse measured on the last day, and the difference between the kidney/weight ratios of the mice was calculated.
# iNOS = assay: Western blotting of kidney, iNOS; type: in vivo, mouse
# Method: as §1, §2
# (§3) The kidneys were homogenized with a PBS solution and diluted 10 folds to form a homogeneous solution, and the homogeneous solution was centrifuged at 12,000 rpm at 4° C. for 20 minutes. The supernatant was taken to quantify each protein concentration, and treated to have a uniform concentration. A protein was added to a protein dye to form a sample, placed in a drying bath at 100° C., and heated for 5 minutes. Then, the sample was injected into 10%, 15% or 8% of colloid prepared with 40% of acrylamide/bisN,N-methylenbisacrylamide, in which the ratio of acrylamide to bisN,N-methylenbisacrylamide was 29:1. […]
# (§4) After completion of the transfer, blocking was performed for 1 hour using milk. […] In addition, image data were acquired and analyzed by the Image J system.
# COX-2 = assay: Western blotting of kidney, COX-2; type: in vivo, mouse
# Method: as §1, §2, §3, §4
# TLR4 = assay: Western blotting of kidney, TLR4; type: in vivo, mouse
# Method: as §1, §2, §3, §4
# p-NFκB = assay: Western blotting of kidney, p-NFκB; type: in vivo, mouse
# Method: as §1, §2, §3, §4
# [3] = test system: superoxide dismutase (SOD); assay: Western blotting of kidney, SOD; type: in vivo, mouse
# Method: as §1, §2, §3, §4
# catalase = type: in vivo, mouse; settings: kidney; Amifostine 200 mg/Kg i.p. or WFV 1000 mg/kg oral in advance
# Method: as §1, §2, §3, §4
# [4] = test system: glutathione peroxidase (GPX1); assay: Western blotting of kidney, GPX1; type: in vivo, mouse
# Method: as §1, §2, §3, §4
# Bcl-2 = assay: Western blotting of kidney, Bcl-2; type: in vivo, mouse
# Method: as §1, §2, §3, §4
# BAX = assay: Western blotting of kidney, BAX; type: in vivo, mouse
# Method: as §1, §2, §3, §4
# NO free radicals = assay: Nitrite analysis of mouse serum; type: in vivo; settings: cisplatin 20 mg/Kg i.p.
# Method: as §1, §2
# Mouse serum was taken by 100 μL each and added to a new 96-well microassay plate. Then, Griess Reagent was added by the same amount of […]. The Griess reagent was obtained by mixing an aqueous solution of N-(1-naphthyl)ethylenediamine with a 1% sulfanilamide solution dissolved in 5% phosphoric acid in the volumetric ratio of 1:1. Thereafter, the absorbance was measured at a wavelength of 540 nm using a microplate spectrometer (Molecular Devices), so that the ability of removing NO free radicals was measured in each group.
# TNF-α = assay: Cytokine analysis (ELISA), TNF-α; type: in vivo, mouse; settings: serum ELISA; cisplatin 20 mg/Kg i.p. vs control group
# Method: as §1, §2
# (§5) After sacrificing the mice to collect corresponding blood, and serum was separated and then diluted 10-fold or 5-fold. TNF-α, IL-6 and IL-1β were analyzed according to the multiple antibody sandwich principle by using BioLegend Company's ELISA kits.
# (§6) In a 96-well microassay plate, 100 μL of capture antibody was added to each well, and placed at room temperature overnight. […] Finally, 2 equivalents of 100 μL of sulfuric acid as a stop solution was added, and the change in absorbance at a wavelength of 450 nm was measured with a microplate spectrometer. The concentration of cytokines in serum was additionally calculated.
# IL-1β = assay: Cytokine analysis (ELISA), IL-1β; type: in vivo, mouse; settings: serum ELISA; cisplatin 20 mg/Kg i.p. vs control group
# Method: as §1, §2, §5, §6
# IL-6 = assay: Cytokine analysis (ELISA), IL-6; type: in vivo, mouse; settings: serum ELISA; cisplatin 20 mg/Kg i.p. vs control group
# Method: as §1, §2, §5, §6
# Nrf2 = assay: Western blotting of kidney, Nrf2; type: in vivo, mouse; settings: cisplatin 20 mg/Kg i.p. vs control group
# Method: as §1, §2, §3, §4
# HO-1 = assay: Western blotting of kidney, HO-1; type: in vivo, mouse; settings: cisplatin 20 mg/Kg i.p. vs control group
# Method: as §1, §2, §3, §4
# LC3B = assay: Western blotting of kidney, LC3B; type: in vivo, mouse; settings: cisplatin 20 mg/Kg i.p. vs control group
# Method: as §1, §2, §3, §4
# p62 = assay: Western blotting of kidney, p62; type: in vivo, mouse; settings: cisplatin 20 mg/Kg i.p. vs control group
# Method: as §1, §2, §3, §4
# Beclin-1 = assay: Western blotting of kidney, Beclin-1; type: in vivo, mouse; settings: cisplatin 20 mg/Kg i.p. vs control group
# Method: as §1, §2, §3, §4
# PI3K = assay: Western blotting of kidney, PI3K; type: in vivo, mouse; settings: cisplatin 20 mg/Kg i.p. vs control group
# Method: as §1, §2, §3, §4
# AKT = assay: Western blotting of kidney, AKT; type: in vivo, mouse; settings: cisplatin 20 mg/Kg i.p. vs control group
# Method: as §1, §2, §3, §4
# [5] = Amifostine 200 mg/Kg i.p. or high-dose WFV (1000 mg/Kg oral) vs cisplatin induction group
# [6] = Amifostine 200 mg/Kg i.p. or WFV 1000 mg/kg oral in advance
# [7] = Amifostine 200 mg/Kg i.p. or high-dose WFV (1000 mg/Kg oral) vs induction group
# [8] = cisplatin 20 mg/Kg i.p. vs control group
smiles,measurement,setting,value
"NCCCNCCSP(=O)(O)O [Ami, Amifostine]",Body weight After,[1],36.6 ± 0.18 g
same,Kidney weight,[2],0.55 ± 0.025 g
same,expression level of iNOS,iNOS; [5],decreased
same,expression level of COX-2,COX-2; [5],decreased
same,expression level of TLR4,TLR4; [5],decreased
same,expression level of p-NFκB,p-NFκB; [5],decreased
same,expression level of SOD,[3]; [6],not decreased
same,expression level of catalase,catalase,not decreased
same,expression level of GPX1,[4]; [6],not decreased
same,expression level of Bcl-2,Bcl-2; [7],increased
same,expression level of apoptogenic protein BAX,BAX; [7],significantly decreased
"N.N.[Cl][Pt][Cl] [Cis, cisplatin]",expression level of NO free radicals (nitrite in serum),NO free radicals,increased remarkably
same,concentration of TNF-α,TNF-α,increased
same,concentration of IL-1β,IL-1β,increased
same,concentration of IL-6,IL-6,increased
same,expression level of iNOS,iNOS; [8],significant differences compared with the control group
same,expression level of COX-2,COX-2; [8],significant differences compared with the control group
same,expression level of TLR4,TLR4; [8],upward trend
same,expression level of p-NFκB,p-NFκB; [8],upward trend
same,expression level of SOD,[3]; [8],decreased
same,expression level of GPX1,[4]; [8],decreased
same,expression level of Nrf2,Nrf2,significantly increased
same,expression level of HO-1,HO-1,significantly increased
same,expression level of Bcl-2,Bcl-2; [8],decreased
same,expression level of apoptogenic protein BAX,BAX; [8],increased
same,level of LC3B,LC3B,significantly increased
same,level of p62,p62,significantly increased
same,level of Beclin-1,Beclin-1,significantly increased
same,expression level of PI3K,PI3K,significantly increased
same,expression level of AKT,AKT,significantly increased

# Reference: US20230173005A1 (ASIA UNIVERSITY, priority 2021, published 2023)
